Reference: patent publication US20220192955A1, “AZOXYSTROBIN EFFICACY IN SCALP HEALTH” (The Procter & Gamble Company, priority 2020, published 2022)
≈ marks a conversion by molar mass, not a printed value.

Tested on: Malassezia furfur (CBS 7982)
Test: In vitro evaluation of antifungal potency (MIC)
Type: cell-based
Conditions: for MIC value, Malassezia furfur / MIC: M. furfur CBS 7982, mDixon medium, 31° C., approximately 72 hours, absorbance at 600 nm; for MIC: Malassezia furfur, CBS7982
Description: Malassezia furfur (CBS 7982) is grown for approximately 24 hours in a 250 ml vent cap polycarbonate Erlenmeyer flask containing approximately 100 ml of mDixon medium and 5 ml of a fully grown M. furfur culture prepared using the same conditions as described. The cells are diluted by mixing 2.5 ml of the 24 hour-old culture per 50 ml of mDixon medium. A Versette robot (ThermoFisher Scientific) is used to transfer 292.5 μl of the dilute cells into each well of a Beckman 267007 polypropylene round bottom deep well plate. All compounds are sourced from Sigma Aldrich (St. Louis, Mo.) and prepared as 10 mg/ml in DMSO. A semipermeable aeraseal membrane is applied to the plate which is then be covered with water-soaked cotton batting. The samples are be shaken at 31° C. on a Heidolph Titramax 100 shaker at 1500 rpm for approximately 72 hours. The plates are shaken at 1250 rpm on an Eppendorf MixMate shaker to disperse the cells before transferring 200 μl to a Corning 3596 polystyrene plate. The samples are shaken again at 950 rpm on a MixMate shaker before the absorbance at 600 nm is read using a Molecular Devices SpectraMax plate reader.

Row | MIC value, Malassezia furfur | times less potent than azoxystrobin (MIC) (Malassezia furfur MIC ratio) | Molecule | MIC
1 | – | – | CO/N=C(/C1=NOCCO1)c1ccccc1Oc1ncnc(Oc2ccccc2Cl)c1F [Fluoxastrobin, fluoxastrobin] | 3.91 µg/mL (≈ 8.52 µM)
2 | 31.25 ppm | 64 times | CNC(=O)/C(=N/OC)c1ccccc1CO/N=C(C)/C(=N/OC)C(/C)=N/OC [Orysastrobin, orysastrobin] | –
3 | – | – | CO/N=C(/C(=O)OC)c1ccccc1COc1ccccc1C [Kresoxim-methyl, kresoxim methyl] | 15.6 µg/mL (≈ 49.9 µM)
4 | – | – | CON=C(C(=O)OC)c1ccccc1CON=C(C)c1cccc(C(F)(F)F)c1 [Trifloxystrobin, trifloxystrobin] | 15.6 µg/mL (≈ 38.3 µM)
5 | 7.81 ppm | – | CNC(=O)/C(=N/OC)c1ccccc1COc1cc(C)ccc1C [Dimoxystrobin, dimoxystrobin] | –
6 | – | – | COC(=O)N(OC)c1ccccc1COc1ccn(-c2ccc(Cl)cc2)n1 [Pyraclastrobin, pyraclostrobin] | 1.95 µg/mL (≈ 5.03 µM)

Row | Molecule | MIC value, Malassezia furfur | times less potent than azoxystrobin (MIC) (Malassezia furfur MIC ratio) | MIC
7 | zinc pyrithione | 3.13 ppm | – | –
